Where two headings read alike, the source gives them in different places.

One assay deals with T1, androgen receptor (AR) (Homo sapiens, UniProt P10275, T878A).
T1 construct: wild type androgen receptor (AR) is obtained by isolating cytoplasm fraction from LNCaP cell line; host or cells: LNCaP cytoplasm fraction
T1 sequence (P10275 1-920 T878A): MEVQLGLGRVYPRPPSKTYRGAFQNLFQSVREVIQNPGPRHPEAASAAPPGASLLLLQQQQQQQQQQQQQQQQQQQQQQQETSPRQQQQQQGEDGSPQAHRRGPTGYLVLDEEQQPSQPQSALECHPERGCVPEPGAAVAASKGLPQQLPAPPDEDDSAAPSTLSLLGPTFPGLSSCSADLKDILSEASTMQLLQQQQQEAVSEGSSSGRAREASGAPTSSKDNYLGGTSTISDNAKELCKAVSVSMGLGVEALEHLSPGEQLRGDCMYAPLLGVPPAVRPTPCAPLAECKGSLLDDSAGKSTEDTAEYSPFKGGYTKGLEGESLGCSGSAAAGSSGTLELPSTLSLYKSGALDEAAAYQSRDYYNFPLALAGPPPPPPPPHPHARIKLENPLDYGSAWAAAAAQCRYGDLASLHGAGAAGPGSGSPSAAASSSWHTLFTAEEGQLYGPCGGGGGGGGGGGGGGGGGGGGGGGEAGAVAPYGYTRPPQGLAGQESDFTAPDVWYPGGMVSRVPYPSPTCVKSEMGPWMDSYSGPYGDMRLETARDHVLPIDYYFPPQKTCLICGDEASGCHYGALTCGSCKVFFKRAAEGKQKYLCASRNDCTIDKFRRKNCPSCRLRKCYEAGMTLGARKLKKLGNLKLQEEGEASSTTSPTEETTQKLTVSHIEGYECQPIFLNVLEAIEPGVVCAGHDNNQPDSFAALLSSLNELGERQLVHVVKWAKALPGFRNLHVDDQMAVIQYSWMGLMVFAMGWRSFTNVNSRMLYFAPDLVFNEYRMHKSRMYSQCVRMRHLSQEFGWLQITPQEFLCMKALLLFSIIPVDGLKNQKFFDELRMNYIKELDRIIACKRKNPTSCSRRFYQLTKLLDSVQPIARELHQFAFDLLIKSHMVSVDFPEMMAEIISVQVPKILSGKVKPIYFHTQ
Briefly: competitive steroid binding assay ([3H] methyltrienolone displacement). The method, then:
This assay determines whether or not the adamantane derivative according to the present disclosure is bound to androgen receptor (AR) competitively with methyltrienolone, which is an agonist to androgen receptor.
Such competitive steroid binding assay is carried out by introducing tritium-labeled methyltrienolone as a ligand for androgen receptor, introducing test samples non-labeled with radio isotope thereto at a different concentration, and checking whether or not the test samples are bound to androgen receptor competitively with the ligand, methyltrienolone. In this manner, the test samples are evaluated for their anti-androgenic effects. Herein, the level of the remaining isotope, tritium, is measured to determine whether or not the test samples are bound to androgen receptor competitively with the ligand, methyltrienolone.
Particularly, wild type androgen receptor (AR) is obtained by isolating cytoplasm fraction from LNCaP cell line (ATCC® CRL-1740™). […] The reaction is carried out at 4° C. for 24 hours and the reaction mixture is filtered and washed. Then, radio activity is measured in each ligand bound to the receptor.

The next assay concerns mice. The assay can be described thus: effect of stimulating hair growth in dehaired mice. As to conditions: 1.0 wt % in water/ethanol/1,3-butylene glycol, 150 μl/day applied on back for 21 days; newly grown hair. It is filed as in vivo. The method, then: To evaluate the adamantane derivatives according to the present disclosure for the effect of stimulating hair growth, each of the adamantane derivatives according to Examples 1-10 is dissolved into a solvent including water/ethanol/1,3-butylene glycol (5/3/2) to a concentration of 1.0 wt %. Next, mice 47-53 days after the birth are dehaired on their backs. Then, mice whose skins on the back portions are clear are selected and grouped by 8 mice per group. Each adamantane derivative having a concentration of 1.0 wt % is applied to each mouse every day in an amount of 150 μl/day for 21 days. After 21 days, newly grown hair is weighed and the weight is compared with negative control.

In assay [1] the test system is Rat-derived follicle dermal papilla cells. Briefly: growth of dermal papilla cells (MTT). Format: cell-based. As to conditions: 10 μg/ml, 48 hours, MTT absorbance at 570 nm relative to DMSO control (100), read-out: Ratio (%) of growth of dermal papilla cells. The method, then: Rat-derived follicle dermal papilla cells cultured in Dulbecco's modified Eagle's media (DMEM) containing 2% of fetal bovine serum are dispensed to a 96-well microtiter plate to 1,000 cells/well. As positive control, minoxidil diluted to a concentration of 10 μg/ml is added. Each of the adamantane derivatives according to Examples 1-10 diluted to a concentration of 10 μg/ml is added, followed by culturing at 37° C. for 48 hours. After culturing, 0.2% 3-[4,5-dimethylthiazol-2-yl]-2,5-diphenyltetrazolium bromide (MTT) solution is added to each well in an amount of 50 μl, followed by culturing at 37° C. for 4 hours. Then, the produced formazane is dissolved with dimethyl sulfoxide (DMSO). A microplate reader is used to determine the absorbance of the dissolved formazane at 570 nm. The absorbance is compared with the absorbance of control treated with DMSO solution alone and the ratio (%) of growth of dermal papilla cells is evaluated based on the relative difference.

In assay [2] the test system is male and female subjects suffering from excessive secretion of sebum. The assay can be described thus: effect of inhibiting secretion of sebum (Sebumeter SM810). It is filed as in vivo. To be noted: nourishing cream including the compound applied every day. The method, then:
The following test is carried out to evaluate the adamantane derivatives according to Examples 1-10 for the effect of inhibiting secretion of sebum. Twenty male and female subjects suffering from excessive secretion of sebum are selected and allowed to apply nourishing cream including each of Examples 1-10 and nourishing cream of negative control every day at a predetermined site for 4 weeks. Then, Sebumeter SM810 (C&K Electronic Co., Germany) is used to determine the average ratio (%) of decrease in sebum after 2 weeks and 4 weeks.

Setting [3] is: wild type AR from LNCaP cytoplasm fraction, [3H] methyltrienolone, 4° C. for 24 hours.

Usually IC50 stands for the concentration that gives 50% inhibition. Higher therefore signals weaker potency in that assay. On to `COc1cc([N+](=O)[O-])ccc1NC(=O)C12CC3CC(CC(C3)C1)C2` [Example 25, Adamantan-1-carboxylic Acid (2-methoxy-4-nitrophenyl)amide], for which the IC50 at androgen receptor (AR) (setting [3]) came to 1200 nM.

Regarding `Cc1cc(C(=O)NC23CC4CC(CC(C4)C2)C3)ccc1[N+](=O)[O-]` [Example 7], on androgen receptor (AR) (setting [3]), the IC50 is 1900 nM. The “Hair weight” value in the assay on mice is listed as 68 ± 8 mg. Moreover, in assay [1], the activity at 10 µg/mL worked out at 123%. Moreover, in assay [2], the “Ratio (%) of decrease in sebum After 2 weeks” value was 18.1% and the “Ratio (%) of decrease in sebum After 4 weeks” value worked out at 29.8%.

On to `COc1cc(NC(=O)C23CC4CC(CC(C4)C2)C3)ccc1F` [Example 17, Adamantan-1-carboxylic Acid (4-fluoro-3-methoxyphenyl)amide], for which the IC50 at androgen receptor (AR) (setting [3]) stood at 14800 nM.

In the case of `COc1cc(NC(=O)C23CC4CC(CC(C4)C2)C3)ccc1Br` [Example 19, Adamantan-1-carboxylic Acid (4-bromo-3-methoxyphenyl)amide], the IC50 at androgen receptor (AR) (setting [3]) turned out to be 5300 nM.

`O=C(Nc1cccc([N+](=O)[O-])c1)C12CC3CC(CC(C3)C1)C2` [Example 23, Adamantan-1-carboxylic Acid (3-nitrophenyl)amide] came in with an IC50 on androgen receptor (AR) (setting [3]) of 13500 nM.

Consider `Nc1cc(N2CCCCC2)nc(N)[n+]1[O-]` [minoxidil, reference compound], for which, in assay [1], the activity at 10 µg/mL was 120%.

On to `Cc1cc(NC(=O)C23CC4CC(CC(C4)C2)C3)ccc1[N+](=O)[O-]` [Example 1, Adamantan-1-carboxylic acid-(3-methyl-4-nitrophenyl)-amide], for which the IC50 at androgen receptor (AR) (setting [3]) worked out at 1200 nM. For the same molecule, in the assay with mice, the “Hair weight” value is reported as 77 ± 11 mg. The activity at 10 µg/mL in assay [1] is 124%. In assay [2], the “Ratio (%) of decrease in sebum After 2 weeks” value is recorded as 21.5% and the “Ratio (%) of decrease in sebum After 4 weeks” value is reported as 35.2%.

`O=C(Nc1ccc([N+](=O)[O-])cc1Cl)C12CC3CC(CC(C3)C1)C2` [Example 4, Adamantan-1-carboxylic acid-(2-chloro-4-nitrophenyl)-amide]: the IC50 at androgen receptor (AR) (setting [3]) was 1400 nM. The “Hair weight” value in the assay on mice was 75 ± 10 mg. Further, the activity at 10 µg/mL in assay [1] turned out to be 130%. Further, in assay [2], the “Ratio (%) of decrease in sebum After 2 weeks” value is reported as 20.7% and the “Ratio (%) of decrease in sebum After 4 weeks” value worked out at 29.7%.

With `N#Cc1ccc(NC(=O)C23CC4CC(CC(C4)C2)C3)c(Cl)c1` [Example 6, Adamantan-1-carboxylic acid-(4-cyano-2-chloro-phenyl)-amide], the IC50 on androgen receptor (AR) (setting [3]) turned out to be 2400 nM. The “Hair weight” value in the assay on mice came out at 67 ± 12 mg. In addition, the activity at 10 µg/mL in assay [1] is 124%. In addition, in assay [2], the “Ratio (%) of decrease in sebum After 2 weeks” value stood at 17.4% and the “Ratio (%) of decrease in sebum After 4 weeks” value came to 31.4%.

Molecule `O=C(Nc1ccc([N+](=O)[O-])c(Cl)c1)C12CC3CC(CC(C3)C1)C2` [Example 3, Adamantan-1-carboxylic acid-(3-chloro-4-nitrophenyl)-amide] displayed an IC50 at androgen receptor (AR) (setting [3]) of 440 nM. Further, the “Hair weight” value in the assay with mice is on record as 72 ± 6 mg. The activity at 10 µg/mL in assay [1] came to 118%. Further, in assay [2], the “Ratio (%) of decrease in sebum After 2 weeks” value is reported as 18.1% and the “Ratio (%) of decrease in sebum After 4 weeks” value is reported as 27.6%.

At androgen receptor (AR), `N#Cc1ccc(NC(=O)C23CC4CC(CC(C4)C2)C3)cc1C(F)(F)F` [Comp. Ex. 1, Adamantan-1-carboxylic acid-(4-cyano-3-trifluoro-phenyl)amide, reference compound] registered an IC50 of 11400 nM. Also, the “Hair weight” value in the assay on mice was determined as 59 ± 12 mg. In assay [1], the activity at 10 µg/mL turned out to be 114%. Moreover, in assay [2], the “Ratio (%) of decrease in sebum After 2 weeks” value was 16.5% and the “Ratio (%) of decrease in sebum After 4 weeks” value is 26.2%.

In the case of `COc1cc(NC(=O)C23CC4CC(CC(C4)C2)C3)ccc1C#N` [Example 5, Adamantan-1-carboxylic acid-(4-cyano-3-methoxy-phenyl)-amide], the IC50 on androgen receptor (AR) (setting [3]) stood at 2200 nM. Moreover, the “Hair weight” value in the assay with mice amounted to 71 ± 14 mg. Also, the activity at 10 µg/mL in assay [1] was determined as 145%. In assay [2], the “Ratio (%) of decrease in sebum After 2 weeks” value is on record as 18.7% and the “Ratio (%) of decrease in sebum After 4 weeks” value amounted to 32.8%.

`COc1cc(NC(=O)C23CC4CC(CC(C4)C2)C3)ccc1[N+](=O)[O-]` [Example 2, Adamantan-1-carboxylic acid-(3-methoxy-4-nitrophenyl)-amide]: the IC50 at androgen receptor (AR) (setting [3]) was determined as 240 nM. For the same molecule, the “Hair weight” value with mice was determined as 74 ± 9 mg. In assay [1], the activity at 10 µg/mL came out at 124%. In assay [2], the “Ratio (%) of decrease in sebum After 2 weeks” value is listed as 19.4% and the “Ratio (%) of decrease in sebum After 4 weeks” value was determined as 28.8%.

For the molecule `COc1cc(C(=O)NC23CC4CC(CC(C4)C2)C3)ccc1[N+](=O)[O-]` [Example 8], the IC50 on androgen receptor (AR) (setting [3]) is 740 nM. Besides, the “Hair weight” value in the assay on mice worked out at 70 ± 14 mg. Moreover, in assay [1], the activity at 10 µg/mL is 125%. In addition, in assay [2], the “Ratio (%) of decrease in sebum After 2 weeks” value is reported as 19.8% and the “Ratio (%) of decrease in sebum After 4 weeks” value was 33.7%.

The values above are taken from patent publication US10696611B2, “Adamantane derivative compound” (AMOREPACIFIC CORPORATION, priority 2014, dated 2020).
